Results on 20 molecules are retold here after patent US20230293517A1, “ANTAGONIST COMPOUNDS” (AdoRx Therapeutics Limited, priority 2020, published 2023).

The term Ki denotes a dissociation constant, usually derived from enzyme kinetics or from competition with a known ligand.

The target in test [1] is human Adenosine A1 receptor (Homo sapiens (Human), UniProt P30542). Kind of test: Adenosine receptor TR-FRET binding assay (A1). The following applies: inhibition of binding of 100 nM CA200645, CHO cell membranes. The method, then: (§1) Biological Example 1—Adenosine Receptor Time-Resolved Fluorescence Resonance Energy Transfer (TRFRET) Binding Assay
(§2) All FRET binding experiments were conducted at room temperature in white 384-well plates, in assay binding buffer containing 1×LabMed (Cisbio, France), 100 μg/mL saponin, 1% DMSO and 0.02% pluronic acid. Binding of the fluorescently labelled Adenosine receptor antagonist XAC (CA200645, FRET acceptor) to terbium-labelled A1, A2a, A2b and A3 adenosine receptors (FRET donors) was detected by time-resolved FRET due to the close proximity of the donor and acceptor in a binding event. To investigate the ability of unlabelled test compounds to bind to Adenosine A1, A2a, A2b and A3 receptors, dose response curves were constructed that determined the ability of a range of concentrations to inhibit the binding of 30 nM CA200645 to the A2b receptor and 100 nM CA200645 to the A1, A2a, and A3 receptor.
(§3) Serial dilution (1:3 dilutions) of test compounds in neat DMSO and transfer of a 400 nL sample of test compound into the assay plate was carried out using the Mosquito (TTP Labtech, UK). The compound samples were incubated for 2 hours at room temperature with a fixed concentration of CA200645 defined for each receptor (see above) and CHO cell membranes containing the human Adenosine A1 (0.5 μg/well), A2a (0.3 μg/well), A2b (1 μg/well) or A3 (1 μg/well) receptor in 40 μL of assay buffer. Total and non-specific binding of CA200645 was determined in the absence and presence of 10 μM XAC, respectively. Following 2 hours incubation, the level of CA200645 binding was detected on a Pherastar FSX (BMG Labtech, Germany) using standard TR-FRET settings. The terbium donor was excited with three laser flashes at a wavelength of 337 nm, and donor and acceptor emission was detected at 620 nm and 665 nm wavelengths, respectively. FRET ratios were obtained by multiplying the acceptor/donor ratio value by 10,000. Specific binding was determined by subtracting the non-specific binding FRET ratio from the total binding FRET ratio. Compound IC50 curves were analysed using GraphPad Prism 7.0 (GraphPad, USA) and Ki affinity values were determined from the obtained IC50 values using the method of Cheng and Prusoff.
On the technique in general: Time-resolved FRET reads energy transfer from a long-lived donor to a nearby acceptor.

Test [2] deals with human Adenosine A2b receptor (Homo sapiens (Human), UniProt P29275). Kind of test: Adenosine receptor TR-FRET binding assay (A2b). The method, then: as §1, §2, §3
For test [3], the target named is human Adenosine A2a receptor (Homo sapiens (Human), UniProt P29274). Kind of test: Adenosine receptor TR-FRET binding assay (A2a). To be noted: inhibition of binding of 100 nM CA200645, CHO cell membranes. On the procedure:
as §1, §2, §3

Where [4] appears, read: TR-FRET, inhibition of binding of 30 nM CA200645, CHO cell membranes.

Structures are written as SMILES. Where “and” joins values, the source holds several entries; their conditions need not be identical. Identical values can stand only once. Counter-ions that a name gives are not always drawn. Like-named read-outs stand apart in the source and are kept apart here.

Sequence of human Adenosine A2a receptor (P29274 whole entry): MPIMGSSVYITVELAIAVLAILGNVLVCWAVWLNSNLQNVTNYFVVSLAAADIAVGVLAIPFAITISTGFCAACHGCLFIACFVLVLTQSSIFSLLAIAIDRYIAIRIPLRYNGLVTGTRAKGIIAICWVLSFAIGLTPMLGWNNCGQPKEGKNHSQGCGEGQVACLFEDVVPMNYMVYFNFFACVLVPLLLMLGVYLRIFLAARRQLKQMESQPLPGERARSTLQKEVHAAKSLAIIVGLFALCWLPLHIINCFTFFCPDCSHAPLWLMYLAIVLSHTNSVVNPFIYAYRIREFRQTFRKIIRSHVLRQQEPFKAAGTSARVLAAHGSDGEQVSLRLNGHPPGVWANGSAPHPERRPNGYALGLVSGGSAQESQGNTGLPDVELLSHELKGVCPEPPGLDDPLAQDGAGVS
Sequence of human Adenosine A1 receptor (P30542 whole entry): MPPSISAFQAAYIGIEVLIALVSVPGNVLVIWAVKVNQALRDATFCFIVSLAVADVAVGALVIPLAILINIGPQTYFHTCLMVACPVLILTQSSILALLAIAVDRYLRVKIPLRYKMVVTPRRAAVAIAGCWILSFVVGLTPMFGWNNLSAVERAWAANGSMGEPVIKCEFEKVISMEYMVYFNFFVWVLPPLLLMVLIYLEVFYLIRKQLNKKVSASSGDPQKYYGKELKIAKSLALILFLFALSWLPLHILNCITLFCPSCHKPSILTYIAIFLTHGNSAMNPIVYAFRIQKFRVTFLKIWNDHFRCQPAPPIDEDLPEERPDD
Sequence of human Adenosine A2b receptor (P29275 whole entry): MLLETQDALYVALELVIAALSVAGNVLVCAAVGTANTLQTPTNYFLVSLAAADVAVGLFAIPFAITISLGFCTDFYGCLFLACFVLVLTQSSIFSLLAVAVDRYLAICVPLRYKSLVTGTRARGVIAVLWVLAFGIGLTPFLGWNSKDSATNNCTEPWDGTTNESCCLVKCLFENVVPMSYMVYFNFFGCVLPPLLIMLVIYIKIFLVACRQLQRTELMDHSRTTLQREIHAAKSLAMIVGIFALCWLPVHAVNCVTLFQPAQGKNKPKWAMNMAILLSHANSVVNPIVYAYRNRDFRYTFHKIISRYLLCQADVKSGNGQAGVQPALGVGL

Regarding `Cc1cc(-c2sc(NC(=O)N3C[C@H](C)N[C@@H](C)C3)nc2-c2cccc(C#N)c2)cc(C)n1` [Example 13.3, (3S,5S)-N-[4-(3-Cyanophenyl)-5-(2,6-dimethyl-4-pyridyl)thiazol-2-yl]-3,5-dimethyl-piperazine-1-carboxamide], the Ki in test [1] was 322 nM; in test [2] (setting [4]), 77 nM; in test [3], 11.4 nM.
For `Cc1cc(-c2sc(NC(=O)N3CCC4(CCN4C)C3)nc2-c2cccc(C#N)c2)cc(C)n1` (stereo not shown) [Example 4.36, N-[4-(3-Cyanophenyl)-5-(2,6-dimethyl-4-pyridyl)thiazol-2-yl]-1-methyl-1,7-diazaspiro[3.4]octane-7-carboxamide formate salt], in that order: 316 nM, 13.8 nM and 2.48 nM.
For `Cc1cc(-c2sc(NC(=O)N3C4CNCC3C4)nc2-c2cccc(C#N)c2)cc(C)n1` [Example 7.5, N-[4-(3-Cyanophenyl)-5-(2,6-dimethyl-4-pyridyl)thiazol-2-yl]-3,6-diazabicyclo[3.1.1]heptane-6-carboxamide], in that order: 9 nM, 11.9 nM and 1.26 nM.
For `Cc1cc(-c2sc(NC(=O)N3CC(N(C)C)C3)nc2-c2cccc(C#N)c2)cc(C)n1` [Example 6.115, N-[4-(3-Cyanophenyl)-5-(2,6-dimethyl-4-pyridyl)thiazol-2-yl]-3-(dimethylamino)azetidine-1-carboxamide], the values for the Ki in test [1], in test [2] (setting [4]) and in test [3] were 177 nM, 29 nM and 8 nM, respectively.
For `Cc1cc(-c2sc(NC(=O)N3CC4CN(C)CC43)nc2-c2cccc(C#N)c2)cc(C)n1` (stereo not shown) [Example 6.120, N-[4-(3-Cyanophenyl)-5-(2,6-dimethyl-4-pyridyl)thiazol-2-yl]-3-methyl-3,6-diazabicyclo[3.2.0]heptane-6-carboxamide], in that order: 123 nM, 63.9 nM and 11.1 nM.
For `Cc1cc(-c2sc(NC(=O)N3C[C@H]4CC[C@@H]3CN4)nc2-c2cccc(C#N)c2)cc(C)n1` [Example 7.6, (1R,4R)—N-[4-(3-Cyanophenyl)-5-(2,6-dimethyl-4-pyridyl)thiazol-2-yl]-2,5-diazabicyclo[2.2.2]octane-2-carboxamide] the same measures were 162 nM, 22.6 nM and 4.09 nM.
Turning to `Cc1cc(-c2sc(NC(=O)N3CCC(CN4CCOCC4)CC3)nc2-c2cccc(C#N)c2)cc(C)n1` [Example 6.116, N-[4-(3-Cyanophenyl)-5-(2,6-dimethyl-4-pyridyl)thiazol-2-yl]-4-(morpholinomethyl)piperidine-1-carboxamide formate salt], the values for the Ki in test [1], in test [2] (setting [4]) and in test [3] were 281 nM, 10 nM and 7.39 nM, respectively.
On to `Cc1cc(-c2sc(NC(=O)N3CCN4CCC3C4)nc2-c2cccc(C#N)c2)cc(C)n1` (stereo not shown) [Example 6.121, N-[4-(3-Cyanophenyl)-5-(2,6-dimethyl-4-pyridyl)thiazol-2-yl]-1,4-diazabicyclo[3.2.1]octane-4-carboxamide], for which the figures for the inhibition constant Ki in test [1], in test [2] (setting [4]) and in test [3] were 123 nM, 6.8 nM and 1.94 nM, respectively.
`Cc1cc(-c2sc(NC(=O)N3CCN4CCC[C@H]4C3)nc2-c2cccc(C#N)c2)cc(C)n1` [Example 4.38, (8aS)-N-[4-(3-Cyanophenyl)-5-(2,6-dimethyl-4-pyridyl)thiazol-2-yl]-3,4,6,7,8,8a-hexahydro-1H-pyrrolo[1,2-a]pyrazine-2-carboxamide formate salt]: the Ki was 180 nM and 75 nM in test [1] (formate salt); 8.1 nM and 3.5 nM in test [2] (TR-FRET, inhibition of binding of 30 nM CA200645, CHO cell membranes, formate salt).
For `Cc1cc(-c2sc(NC(=O)N3CCN(CC(C)(C)O)CC3)nc2-c2cccc(C#N)c2)cc(C)n1` [Example 4.34, N-[4-(3-Cyanophenyl)-5-(2,6-dimethyl-4-pyridyl)thiazol-2-yl]-4-(2-hydroxy-2-methyl-propyl)piperazine-1-carboxamide], the results for the Ki in test [1], in test [2] (setting [4]) and in test [3] were 268 nM, 13 nM and 12.2 nM, respectively.
For `Cc1cc(-c2sc(NC(=O)N3CCN(C4CCOCC4)CC3)nc2-c2cccc(C#N)c2)cc(C)n1` [Example 6.113, N-[4-(3-Cyanophenyl)-5-(2,6-dimethyl-4-pyridyl)thiazol-2-yl]-4-tetrahydropyran-4-yl-piperazine-1-carboxamide diformate salt] the same measures were 361 nM, 8.3 nM and 10.8 nM.
Take `Cc1cc(-c2sc(NC(=O)N3[C@H](C)CNC[C@H]3C)nc2-c2cccc(C#N)c2)cc(C)n1` [Example 7.8, (2R,6R)—N-[4-(3-Cyanophenyl)-5-(2,6-dimethyl-4-pyridyl)thiazol-2-yl]-2,6-dimethyl-piperazine-1-carboxamide]: the Ki in test [1] came out at 194 nM; in test [2] (setting [4]) it was 60.2 nM; in test [3], 6.73 nM.
For the molecule `Cc1cc(-c2sc(NC(=O)N3C[C@H]4CC[C@@H](C3)N(C)C4)nc2-c2cccc(C#N)c2)cc(C)n1` [Example 6.5, (1S,5S)-N-[4-(3-Cyanophenyl)-5-(2,6-dimethyl-4-pyridyl)thiazol-2-yl]-6-methyl-3,6-diazabicyclo[3.2.2]nonane-3-carboxamide], the Ki was 93 nM in test [1], 23.1 nM in test [2] (setting [4]) and 4.63 nM in test [3].
For `Cc1cc(-c2sc(NC(=O)N3CCC4(CC3)CNCCO4)nc2-c2cccc(C#N)c2)cc(C)n1` [Example 7.3, N-[4-(3-Cyanophenyl)-5-(2,6-dimethyl-4-pyridyl)thiazol-2-yl]-1-oxa-4,9-diazaspiro[5.5]undecane-9-carboxamide] the same measures were 208 nM, 5.7 nM and 1.02 nM.
As to `Cc1cc(-c2sc(NC(=O)N3CC(N4CCCC4)C3)nc2-c2cccc(C#N)c2)cc(C)n1` [Example 6.114, N-[4-(3-Cyanophenyl)-5-(2,6-dimethyl-4-pyridyl)thiazol-2-yl]-3-pyrrolidin-1-yl-azetidine-1-carboxamide], the Ki amounted to 240 nM in test [1], 23 nM in test [2] (setting [4]) and 9.95 nM in test [3].
For `Cc1cc(-c2sc(NC(=O)N3CCNC4(CC4)C3)nc2-c2cccc(C#N)c2)cc(C)n1` [Example 13.2, N-[4-(3-Cyanophenyl)-5-(2,6-dimethyl-4-pyridyl)thiazol-2-yl]-4,7-diazaspiro[2.5]octane-7-carboxamide] the same measures were 27 nM, 4.4 nM and 1.9 nM.
Turning to `Cc1cc(-c2sc(NC(=O)N3CCC(C)(C#N)CC3)nc2-c2cccc(C#N)c2)cc(C2COC2)n1` [Example 6.111, 4-Cyano-N-[4-(3-cyanophenyl)-5-[2-methyl-6-(oxetan-3-yl)-4-pyridyl]thiazol-2-yl]-4-methyl-piperidine-1-carboxamide], the Ki was found to be 18 nM in test [1], 6.4 nM in test [2] (setting [4]) and 0.2 nM in test [3].
With `Cc1cc(-c2sc(NC(=O)N3CCNC(C)(C)C3)nc2-c2cccc(C#N)c2)cc(C)n1` [Example 14.6, N-[4-(3-Cyanophenyl)-5-(2,6-dimethyl-4-pyridyl)thiazol-2-yl]-3,3-dimethyl-piperazine-1-carboxamide], the figures for the Ki in test [1], in test [2] (setting [4]) and in test [3] were 185 nM, 33 nM and 15.6 nM, respectively.
For the molecule `Cc1cc(-c2sc(NC(=O)N3C[C@@H]4NCCO[C@H]4C3)nc2-c2cccc(C#N)c2)cc(C)n1` (racemic) [Example 14.3, rac-(4aS,7aS)—N-[4-(3-Cyanophenyl)-5-(2,6-dimethyl-4-pyridyl)thiazol-2-yl]-3,4,4a,5,7,7a-hexahydro-2H-pyrrolo[3,4-b][1,4]oxazine-6-carboxamide 2,2,2-trifluoroacetic acid salt], the Ki in test [2] was 7.6 nM; in test [3], 3.49 nM.
With `Cc1cc(-c2sc(NC(=O)N3C[C@@H](C)NC[C@@H]3C)nc2-c2cccc(C#N)c2)cc(C)n1` (relative stereo) [Example 7.11, trans-N-[4-(3-Cyanophenyl)-5-(2,6-dimethyl-4-pyridyl)thiazol-2-yl]-2,5-dimethyl-piperazine-1-carboxamide], the Ki in test [1] turned out to be 110 nM; in test [2] (setting [4]) it was 78.7 nM; in test [3], 12.8 nM.
